From US11407737B2, “Inhibitors of RAF kinases” (Kinnate Biopharma Inc., priority 2020, dated 2022)

Molecular target: human RAF1 (Homo sapiens (Human), UniProt P04049)
Assay: Protein kinase assay (radiometric 33P-ATP, MEK1 (K97R) substrate), RAF-1
Type: biochemical
Conditions: human MEK1 (K97R) substrate 3 micromolar, ATP 10 micromolar; 10-dose, 3-fold serial dilution starting at 10 micromolar; read-out: RAF-1 IC50
Procedure, shortened: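 Radiometric filter-binding assay with RAF1 and MEK1 (K97R) substrate at 3 micromolar and 10 micromolar final ATP, in HEPES pH 7.5 buffer with 1% DMSO. Reactions ran 2 hr at room temperature with [γ-33P]ATP. IC50 was derived from remaining activity relative to DMSO control.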

Sequence of human RAF1 (P04049 whole entry): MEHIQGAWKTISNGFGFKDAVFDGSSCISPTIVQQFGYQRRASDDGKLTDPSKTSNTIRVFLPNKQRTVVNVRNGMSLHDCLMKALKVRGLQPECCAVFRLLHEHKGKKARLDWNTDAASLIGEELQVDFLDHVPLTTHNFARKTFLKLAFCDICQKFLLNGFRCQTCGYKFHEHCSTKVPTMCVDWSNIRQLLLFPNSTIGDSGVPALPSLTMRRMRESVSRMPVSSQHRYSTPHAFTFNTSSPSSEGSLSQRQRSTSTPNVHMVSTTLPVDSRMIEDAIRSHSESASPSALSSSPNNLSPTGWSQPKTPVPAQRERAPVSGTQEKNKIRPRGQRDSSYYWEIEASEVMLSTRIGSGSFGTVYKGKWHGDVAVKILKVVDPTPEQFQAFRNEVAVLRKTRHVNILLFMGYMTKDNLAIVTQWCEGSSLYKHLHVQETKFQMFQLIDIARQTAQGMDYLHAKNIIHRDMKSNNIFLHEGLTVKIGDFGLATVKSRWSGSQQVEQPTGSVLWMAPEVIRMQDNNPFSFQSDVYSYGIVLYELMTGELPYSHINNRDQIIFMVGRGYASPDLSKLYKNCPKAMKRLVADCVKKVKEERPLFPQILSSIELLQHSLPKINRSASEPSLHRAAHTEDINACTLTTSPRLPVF

| SMILES | IC50 [nM] |
| --- | --- |
| Cc1cc(F)c(NC(=O)N2CC[C@@H](CC(F)(F)F)C2)cc1-c1cc(-c2cnn(C)c2)nc(N2CCOCC2)c1 [Example 74, (3S)—N-{2-fluoro-4-methyl-5-[2-(1-methylpyrazol-4-yl)-6-(morpholin-4-yl)pyridin-4-yl]phenyl}-3-(2,2,2-trifluoroethyl)pyrrolidine-1-carboxamide] | < 1 |
| Cc1cc(F)c(NC(=O)N2CC[C@@H](C(F)(F)F)C2)cc1-c1cc(-c2cnn(C)c2)nc(N2CCOCC2)c1 [Example 75, (3R)—N-{2-fluoro-4-methyl-5-[2-(1-methylpyrazol-4-yl)-6-(morpholin-4-yl)pyridin-4-yl]phenyl}-3-(trifluoromethyl)pyrrolidine-1-carboxamide] | < 1 |
| Cc1cc(F)c(NC(=O)N2CC[C@H](C(F)(F)F)C2)cc1-c1cc(-c2cnn(C)c2)nc(N2CCOCC2)c1 [Example 76, (3S)—N-{2-fluoro-4-methyl-5-[2-(1-methylpyrazol-4-yl)-6-(morpholin-4-yl)pyridin-4-yl]phenyl}-3-(trifluoromethyl)pyrrolidine-1-carboxamide] | < 1 |
| Cc1cc(F)c(NC(=O)N2CC=C(CC(F)(F)F)C2)cc1-c1cc(-c2cnn(C)c2)nc(N2CCOCC2)c1 [Example 77, N-{2-fluoro-4-methyl-5-[2-(1-methylpyrazol-4-yl)-6-(morpholin-4-yl)pyridin-4-yl]phenyl}-3-(2,2,2-trifluoroethyl)-2,5-dihydropyrrole-1-carboxamide] | < 1 |
| CCn1cc(-c2cc(-c3cc(NC(=O)N4CC[C@@H](CC(F)(F)F)C4)ccc3C)cc(N3CCOCC3)n2)cn1 [Example 78, (3S)—N-{3-[2-(1-ethylpyrazol-4-yl)-6-(morpholin-4-yl)pyridin-4-yl]-4-methylphenyl}-3-(2,2,2-trifluoroethyl)pyrrolidine-1-carboxamide] | < 1 |
| Cc1cc(F)c(NC(=O)N2CC=C(C(F)(F)C(F)(F)F)C2)cc1-c1cc(-c2cnn(C)c2)nc(N2CCOCC2)c1 [Example 79, N-{2-fluoro-4-methyl-5-[2-(1-methylpyrazol-4-yl)-6-(morpholin-4-yl)pyridin-4-yl]phenyl}-3-(1,1,2,2,2-pentafluoroethyl)-2,5-dihydropyrrole-1-carboxamide] | 1 to 10 |
| Cc1cc(F)c(NC(=O)N2CC[C@H](C(C)(C)C)C2)cc1-c1cc(-c2cnn(C)c2)nc(N2CCOCC2)c1 [Example 83, (3R)-3-tert-butyl-N-{2-fluoro-4-methyl-5-[2-(1-methylpyrazol-4-yl)-6-(morpholin-4-yl)pyridin-4-yl]phenyl}pyrrolidine-1-carboxamide] | 1 to 10 |
| Cc1cc(F)c(NC(=O)N2CCC(C(C)(C)F)C2)cc1-c1cc(-c2cnn(C)c2)nc(N2CCOCC2)c1 (centres unmarked) [Example 85, N-{2-fluoro-4-methyl-5-[2-(1-methylpyrazol-4-yl)-6-(morpholin-4-yl)pyridin-4-yl]phenyl}-3-(2-fluoropropan-2-yl)pyrrolidine-1-carboxamide] | 1 to 10 |
